In US8148508 (dated 2012) one finds fragment found data, which are given here for 2 sequences.

The subject of series [1] is clostripain. The series can be described thus: cell free extract containing T7tag-GSDR-[GLP-2(1-34)]6 precursor, pH 6.4 NaH2PO4, 1 mM CaCl2, 1 mM DTT. To be noted: 25° C., up to approximately 3 hours.
Series [2] relates to clostripain. The series can be described thus: 10 mM Tris, 1 mM EDTA, 5 mM CaCl2 (pH 8.0), varying clostripain ratios. To be noted: 21° C.; also 40° C., up to 10 hr.
The subject of series [3] is clostripain. The series can be described thus: clostripain digestion under different pH conditions.
Series [4] deals with clostripain. Nature of the series: 50 mM HEPES buffer (pH 6.7), 1 mM CaCl2, 1 mM cysteine, 4.8 M urea, 10, 20 and 35% ethanol. To be noted: 25° C., up to 30 minutes.
The subject of a further series is recombinant clostripain. The series can be described thus: cell free extract with 0.2 units of recombinant clostripain per mg precursor polypeptide. The conditions noted are these: up to up to 3 hours.

In the case of HADGSFSDEMNTILDNLAARDFINWLIQTKITDR, the fragment found entry is listed as “GLP-2 fragment (21-34)” in the series on clostripain [1] and “truncated GLP-2(21-34)” with clostripain [2].
On to HGDGSFSDEMNTILDNLAARDFINWLIQTKITD, for which the figures for the fragment found entry in the series with clostripain [3], in the series with clostripain [4] and in the series on recombinant clostripain were “GLP-2(21-33)”, “GLP-2(21-33)” and “GLP-2 fragment (21-33)”, respectively.
